# Data from patent US10526287B2, “LSD1 inhibitors and uses thereof” (Constellation Pharmaceuticals, Inc., priority 2015, dated 2020).
# Counter-ions that a name gives are not always drawn.
# Biological target: LSD1 (Homo sapiens, UniProt O60341)
# Assay: Biochemical assay for LSD1 activity (LSD1 demethylase TR-FRET)
# Settings: Table 6; biotinylated H3K4me1 peptide, 50 minutes at room temperature, TR-FRET; read-out: LSD1_Pep_TR-FRET_1.0 (IC50 T50)
row,Structure (SMILES),IC50
1,"CC(C)/C(=C\c1ccccc1)[C@@H]1C[C@H]1NC1CCNCC1 (racemic) [Compound 277, N-((trans)-2-((E)-3-methyl-1-phenylbut-1-en-2-yl)cyclopropyl)piperidin-4-amine Dihydrochloride]",< 100 nM
2,"CC(=Cc1ccc(C#N)cc1)C1CC1N[C@H]1CC[C@@H](N)CC1 (relative stereo) [Compound 131, 4-(2-(2-(((cis)-4-aminocyclohexyl)amino)cyclopropyl)prop-1-en-1-yl)benzonitrile Dihydrochloride]",> 10000 nM
3,"CC(=Cc1ccc(C#N)cc1)C1CC1N[C@H]1CC[C@H](N)CC1 (relative stereo) [Compound 132, 4-(2-(2-(((trans)-4-aminocyclohexyl)amino)cyclopropyl)prop-1-en-1-yl)benzonitrile Dihydrochloride]",> 10000 nM
4,"CC/C(=C\c1ccccc1)[C@@H]1C[C@H]1N[C@H]1CC[C@H](NCCCC(=O)O)CC1 (relative stereo) [Compound 180, 4-(((trans)-4-(((trans)-2-((E)-1-phenylbut-1-en-2-yl)cyclopropyl)amino)cyclohexyl)amino)butanoic Acid bis(trifluoroacetic Acid) Salt]",< 100 nM
5,"C/C(=C\c1ccccc1)[C@@H]1C[C@H]1N[C@H]1CC[C@H](N(C)C)CC1 (single isomer, unassigned) [Compound 138, (trans)-N^1,N^1-dimethyl-N^4-((trans)-2-((E)-1-phenylprop-1-en-2-yl)cyclopropyl)cyclohexane-1,4-diamine]",< 100 nM
6,"COCCNC1CCC(N[C@@H]2C[C@H]2/C(C)=C/c2ccccc2)CC1 (single isomer, unassigned) [Compound 143, (trans)-N1-(2-methoxyethyl)-N4-((trans)-2-((E)-1-phenylprop-1-en-2-yl)cyclopropyl)cyclohexane-1,4-diamine bis(trifluoroacetic acid salt)]",< 100 nM
7,"COCCN[C@H]1CC[C@@H](N[C@@H]2C[C@H]2/C(C)=C/c2ccccc2)CC1 (single isomer, unassigned) [Compound 144, (cis)-N1-(2-methoxyethyl)-N4-((trans)-2-((E)-1-phenylprop-1-en-2-yl)cyclopropyl)cyclohexane-1,4-diamine bis(trifluoroacetic acid) salt]",< 100 nM
8,"CNC(=O)CCCN[C@H]1CC[C@@H](N[C@@H]2C[C@H]2/C(C)=C/c2ccccc2)CC1 (single isomer, unassigned) [Compound 145, N-methyl-4-(((cis)-4-(((trans)-2-((E)-1-phenylprop-1-en-2-yl)cyclopropyl)amino)cyclohexyl)amino)butanamide bis(trifluoroacetic acid) salt]",< 100 nM
9,"C/C(=C\c1ccccc1)[C@@H]1C[C@H]1N[C@H]1CC[C@H](NCCC(=O)N2CCCC2)CC1 (single isomer, unassigned) [Compound 146, 3-(((trans)-4-(((trans)-2-((E)-1-phenylprop-1-en-2-yl)cyclopropyl)amino)cyclohexyl)amino)-1-(pyrrolidin-1-yl)propan-1-one bis(trifluoroacetic acid) salt]",< 100 nM
10,"C/C(=C\c1ccccc1)[C@@H]1C[C@H]1N[C@H]1CC[C@H](NCC(C)(C)C(=O)O)CC1 (single isomer, unassigned) [Compound 148, 2,2-dimethyl-3-(((trans)-4-(((trans)-2-((E)-1-phenylprop-1-en-2-yl)cyclopropyl)amino)cyclohexyl)amino)propanoic acid bis(trifluoroacetic acid) salt]",< 100 nM
11,"C/C(=C\c1ccccc1)[C@@H]1C[C@H]1N[C@H]1CC[C@@H](NCC(C)(C)C(=O)O)CC1 (single isomer, unassigned) [Compound 149, 2,2-dimethyl-3-(((cis)-4-(((trans)-2-((E)-1-phenylprop-1-en-2-yl)cyclopropyl)amino)cyclohexyl)amino)propanoic acid bis(trifluoroacetic acid) salt]",< 100 nM
12,"C/C(=C\c1ccccc1)[C@@H]1C[C@H]1N[C@H]1CC[C@H](NCc2ccc(C(=O)O)cc2)CC1 (single isomer, unassigned) [Compound 150, 4-((((trans)-4-(((trans)-2-((E)-1-phenylprop-1-en-2-yl)cyclopropyl)amino)cyclohexyl)amino)methyl)benzoic acid bis(trifluoroacetic acid) salt]",< 100 nM
13,"C/C(=C\c1ccccc1)[C@@H]1C[C@H]1N[C@H]1CC[C@H](NCCC(N)=O)CC1 (single isomer, unassigned) [Compound 151, 3-(((trans)-4-(((trans)-2-((E)-1-phenylprop-1-en-2-yl)cyclopropyl)amino)cyclohexyl)amino)propanamide bis(trifluoroacetic acid) salt]",< 100 nM
14,"C/C(=C\c1ccccc1)[C@@H]1C[C@H]1N[C@H]1CC[C@@H](NCCC(N)=O)CC1 (single isomer, unassigned) [Compound 152, 3-(((cis)-4-(((trans)-2-((E)-1-phenylprop-1-en-2-yl)cyclopropyl)amino)cyclohexyl)amino)propanamide bis(trifluoroacetic acid) salt]",< 100 nM
15,"C/C(=C\c1ccccc1)[C@@H]1C[C@H]1N[C@H]1CC[C@H](NCCC#N)CC1 (single isomer, unassigned) [Compound 155, 3-(((trans)-4-(((trans)-2-((E)-1-phenylprop-1-en-2-yl)cyclopropyl)amino)cyclohexyl)amino)propanenitrile bis(trifluoroacetic acid) salt]",< 100 nM
16,"C/C(=C\c1ccccc1)[C@@H]1C[C@H]1N[C@H]1CC[C@@H](NCCC#N)CC1 (single isomer, unassigned) [Compound 156, 3-(((cis)-4-(((trans)-2-((E)-1-phenylprop-1-en-2-yl)cyclopropyl)amino)cyclohexyl)amino)propanenitrile bis(trifluoroacetic acid) salt]",< 100 nM
17,"CC/C(=C\c1ccccc1)[C@@H]1C[C@H]1N[C@H]1CC[C@H](NCC(C)(C)C#N)CC1 (single isomer, unassigned) [Compound 157, 2,2-dimethyl-3-(((trans)-4-(((trans)-2-((E)-1-phenylbut-1-en-2-yl)cyclopropyl)amino)cyclohexyl)amino)propanenitrile bis(trifluoroacetic acid salt)]",< 100 nM
18,"CC/C(=C\c1ccccc1)[C@@H]1C[C@H]1N[C@H]1CC[C@@H](NCC(C)(C)C#N)CC1 (single isomer, unassigned) [Compound 158, 2.2-dimethyl-3-(((cis)-4-(((trans)-2-((E)-1-phenylbut-1-en-2-yl)cyclopropyl)amino)cyclohexyl)amino)propanenitrile bis(trifluoroacetic acid salt)]",< 100 nM
19,"CC/C(=C\c1ccccc1)[C@@H]1C[C@H]1N[C@H]1CC[C@H](NCCO)CC1 (single isomer, unassigned) [Compound 159, 2-(((trans)-4-(((trans)-2-((E)-1-phenylbut-1-en-2-yl)cyclopropyl)amino)cyclohexyl)amino)ethan-1-ol bis(trifluoroacetic acid salt)]",< 100 nM
20,"CC/C(=C\c1ccccc1)[C@@H]1C[C@H]1N[C@H]1CC[C@H](NCc2c(OC)cc(C)[nH]c2=O)CC1 (single isomer, unassigned) [Compound 160, 4-methoxy-6-methyl-3-((((trans)-4-(((trans)-2-((E)-1-phenylbut-1-en-2-yl)cyclopropyl)amino)cyclohexyl)amino)methyl)pyridin-2(1H)-one bis(trifluoroacetic acid salt)]",< 100 nM
21,"CC/C(=C\c1ccccc1)[C@@H]1C[C@H]1N[C@H]1CC[C@H](NCC2(CO)COC2)CC1 (single isomer, unassigned) [Compound 161, (3-((((trans)-4-(((trans)-2-((E)-1-phenylbut-1-en-2-yl)cyclopropyl)amino)cyclohexyl)amino)methyl)oxetan-3-yl)methanolbis(trifluoroacetic acid salt)]",< 100 nM
22,"CC/C(=C\c1ccccc1)[C@@H]1C[C@H]1N[C@H]1CC[C@H](NCCOCC(=O)O)CC1 (single isomer, unassigned) [Compound 162, 2-(2-(((trans)-4-(((trans)-2-((E)-1-phenylbut-1-en-2-yl)cyclopropyl)amino)cyclohexyl)amino)ethoxy)acetic acidbis(trifluoroacetic acid salt)]",< 100 nM

# Same assay, conditions: Table 7; biotinylated H3K4me1 peptide, 50 minutes at room temperature, TR-FRET; read-out: LSD1_Pep_TR-FRET_1.0 (IC50 T50)
row,Structure (SMILES),IC50
1,CC/C(=C\c1ccccc1)[C@@H]1C[C@H]1NCC1(C)CNC1 (racemic) [Compound 243],< 100 nM
2,"CC/C(=C\c1ccccc1)[C@@H]1C[C@H]1NC[C@H]1CC[C@H](NCc2ccc(C(=O)O)cc2)CC1 (racemic) [Compound 245, 4-((((trans)-4-((((trans)-2-((E)-1-phenylbut-1-en-2-yl)cyclopropyl)amino)methyl)cyclohexyl)amino)methyl)benzoic Acid Bis Trifluoroacetate]",< 100 nM
3,"CC/C(=C\c1ccccc1)[C@@H]1C[C@H]1NCc1cnc(N)nc1 (racemic) [Compound 246, 5-((((trans)-2-((E)-1-phenylbut-1-en-2-yl)cyclopropyl)amino)methyl)pyrimidin-2-amine Hydrochloride]",< 100 nM
4,"CC/C(=C\c1ccccc1)[C@@H]1C[C@H]1NCc1ccccc1CN (racemic) [Compound 247, (trans)-N-(2-(aminomethyl)benzyl)-2-((E)-1-phenylbut-1-en-2-yl)cyclopropan-1-amine]",< 100 nM
5,"CC/C(=C\c1ccccc1)[C@@H]1C[C@H]1NC1CC2(C1)CN(Cc1ccc(C(=O)O)cn1)C2 (single isomer, unassigned) [Compound 249, 6-((6-(((1R,2S or 1S,2R)-2-(E)-1-phenylbut-1-en-2-yl)cyclopropyl)amino)-2-azaspiro[3.3]heptan-2-yl)methyl)nicotinic Acid Bis Trifluoroacetate]",< 100 nM
6,"CC/C(=C\c1ccccc1)[C@@H]1C[C@H]1NC1CC2(C1)CN(Cc1ccc(C(=O)O)cc1)C2 (single isomer, unassigned) [Compound 250]",< 100 nM
7,"CC/C(=C\c1ccccc1)[C@@H]1C[C@H]1NC1CC2(C1)CN(Cc1ccc(C(=O)O)nc1)C2 (single isomer, unassigned) [Compound 251]",< 100 nM
